We go through 4 molecules from patent US20220235008A1, “PLEUROMULIN 7-CHLORO-1-CYCLOPROPYL-6-FLUORO-1,4-DIHYDRO-4-OXOQUINOLINE-3-CARBOXYLIC ACID ESTER WITH ANTIBACTERIAL ACTIVITY AND A METHOD OF PREPARING THE SAME” (SHAANXI UNIVERSITY OF SCIENCE AND TECHNOLOGY, priority 2021, published 2022).

Common to all, as to assay type: cell-based
The test system of test [1] is multi-resistant Staphylococcus aureus 206 (MRSA-206). Kind of test: paper diffusion method drug sensitivity test, MRSA-206. The note with it: 30 μg/tablet; for Zone of inhibition, MRSA-206: paper 6.35 mm diameter, LB plate, 37° C., 24 h, >17 mm sensitive, 15 mm-16 mm intermediary, <14 mm drug resistance; for inhibitory effect (in words) on multi-drug resistant Staphylococcus aureus 206: paper diffusion, summary of FIGS. 1-3 and Table 1. The procedure: (§1) The antimicrobial efficacy was determined by a paper diffusion method drug sensitivity test.
(§2) Experimental strains: multi-resistant Staphylococcus aureus 206 (MRSA-206), multi-resistant Staphylococcus aureus 575 (MRSA-575), multi-resistant Staphylococcus aureus 596 (MRSA-596). The experimental strain was identified by Huashan Hospital Affiliated to Fudan University (Institute of Antibiotic of Fudan University).
(§3) Drug sensitive paper: The drug sensitive paper was a special drug sensitive paper with a diameter of 6.35 mm and a water absorption of 0.02 mL. The control drug was vancomycin (30 μg/tablet); the test drugs were pleuromulin (30 μg/tablet), 7-chloro-1-cyclopropyl-6-fluoro-1,4-dihydro-4-oxoquinoline-3-carboxylic acid (30 μg/tablet) and pleuromulin 7-chloro-1-cyclopropyl-6-fluoro-1,4-dihydro-4-oxoquinoline-3-carboxylic acid ester (30 μg/tablet).
(§4) Reagents: LB agar medium, LA broth medium, 0.5% DMSO solution.
(§5) The experimental strains were inoculated in non-selective medium and placed in air at 37° C. for 24 h. A single colony that grows well and inoculate it into broth medium was incubate at 35° C.±2° C. for 6 hours, and LA broth medium was used to calibrate the concentration of the bacterial solution to 0.5 Mie turbidimetric tube (1.5×10^8 CFU/mL). A bacterial suspension was obtained.
(§6) LB dry powder was weighed, sterilized at 103.4 Kpa, 121.3° C. high-pressure steam for 15 min, and then placed it in a 40° C.-50° C. water bath. A sterile empty plate (inner diameter 9 cm) was placed on the surface of the ultra-clean table water table, and […] to the plate. The thickness of each plate was 3 mm to 4 mm. After the plate was cooled at room temperature, it was stored in the refrigerator at 2° C.-8° C. A sterile cotton swab was used to dip the bacterial solution and to evenly coat the surface of the LB plate 3 times. After inoculation of the bacterial suspension, the LB plate was dried at room temperature for 3 min to 5 min. Sterile forceps were used to closely attach the antibacterial drug paper to the dish. The dish was put upside down and placed in a 37° C. incubator for 24 h. The results were observed by measuring the diameter. Taking 0.5% DMSO solution as a negative control, the antibacterial activity is expressed by the diameter of the inhibition zone. The inhibition zone >17 mm, sensitive; the inhibition zone of 15 mm-16 mm, intermediary; the inhibition zone <14 mm, drug resistance.

For test [2], the system named is multi-resistant Staphylococcus aureus 575 (MRSA-575). Put plainly: paper diffusion method drug sensitivity test, MRSA-575. The note with it: 30 μg/tablet; for Zone of inhibition, MRSA-575: paper 6.35 mm diameter, LB plate, 37° C., 24 h, >17 mm sensitive, 15 mm-16 mm intermediary, <14 mm drug resistance; for inhibitory effect (in words) on multi-drug resistant Staphylococcus aureus 575: paper diffusion, summary of FIGS. 1-3 and Table 1. The procedure:
as §1, §2, §3, §4, §5, §6

In test [3] the test system is multi-resistant Staphylococcus aureus 596 (MRSA-596). Put plainly: paper diffusion method drug sensitivity test, MRSA-596. Conditions: 30 μg/tablet; for Zone of inhibition, MRSA-596: paper 6.35 mm diameter, LB plate, 37° C., 24 h, >17 mm sensitive, 15 mm-16 mm intermediary, <14 mm drug resistance; for inhibitory effect (in words) on multi-drug resistant Staphylococcus aureus 596: paper diffusion, summary of FIGS. 1-3 and Table 1. As for the experimental part:
as §1, §2, §3, §4, §5, §6

As to `C=C[C@]1(C)C[C@@H](OC(=O)CO)[C@]2(C)[C@H](C)CC[C@]3(CCC(=O)[C@H]32)[C@@H](C)[C@@H]1O` [Pleuromulin], in test [1], the “Zone of inhibition, MRSA-206” value is 0 mm and the “inhibitory effect (in words) on multi-drug resistant Staphylococcus aureus 206” value is “no inhibitory effect”. Moreover, in test [2], the “Zone of inhibition, MRSA-575” value is 0 mm and the “inhibitory effect (in words) on multi-drug resistant Staphylococcus aureus 575” value is “no inhibitory effect”. Moreover, in test [3], the “Zone of inhibition, MRSA-596” value stood at 0 mm and the “inhibitory effect (in words) on multi-drug resistant Staphylococcus aureus 596” value is “no inhibitory effect”.

`C=C[C@]1(C)C[C@@H](OC(=O)COC(=O)C2CN(C3CC3)c3cc(Cl)c(F)cc3C2=O)[C@]2(C)CC[C@@H](C)[C@@]3(CCC(=O)[C@@H]23)[C@@H](C)[C@@H]1O` (stereo partly drawn) [2-(((3aS,4R,5S,6S,8R,9R,9aR,12R)-5-hydroxy-4,6,9,12-tetramethyl-1-oxo-6-vinyldecahydro-3a, 9-propanocyclopenta[8]annulen-8-yl)oxy)-2-oxoethyl-7-chloro-1-cyclopropyl-6-fluoro-4-oxo-1,2,3,4-tetrahydroquinoline-3-carboxylate]: in test [1], the “Zone of inhibition, MRSA-206” value came to 16 mm and the “inhibitory effect (in words) on multi-drug resistant Staphylococcus aureus 206” value is given as “strong inhibitory effects”. Moreover, in test [2], the “Zone of inhibition, MRSA-575” value is recorded as 12 mm and the “inhibitory effect (in words) on multi-drug resistant Staphylococcus aureus 575” value is recorded as “strong inhibitory effects”. In addition, in test [3], the “Zone of inhibition, MRSA-596” value stood at 25 mm and the “inhibitory effect (in words) on multi-drug resistant Staphylococcus aureus 596” value is given as “strong inhibitory effects”.

On to `CN[C@H](CC(C)C)C(=O)N[C@H]1C(=O)N[C@@H](CC(N)=O)C(=O)N[C@H]2C(=O)N[C@H]3C(=O)N[C@H](C(=O)N[C@H](C(=O)O)c4cc(O)cc(O)c4-c4cc3ccc4O)[C@H](O)c3ccc(c(Cl)c3)Oc3cc2cc(c3O[C@@H]2O[C@H](CO)[C@@H](O)[C@H](O)[C@H]2O[C@H]2C[C@](C)(N)[C@H](O)[C@H](C)O2)Oc2ccc(cc2Cl)[C@H]1O` [Vancomycin], for which the “Zone of inhibition, MRSA-206” value in test [1] is 15 mm. In addition, the “Zone of inhibition, MRSA-575” value in test [2] worked out at 17 mm. Moreover, in test [3], the “Zone of inhibition, MRSA-596” value was 23 mm.

Consider `O=C(O)c1cn(C2CC2)c2cc(Cl)c(F)cc2c1=O` [7-Chloro-1-cyclopropyl-6-fluoro-1,4-dihydro-4-oxoquinoline-3-carboxylic acid], for which, in test [1], the “Zone of inhibition, MRSA-206” value is given as 0 mm and the “inhibitory effect (in words) on multi-drug resistant Staphylococcus aureus 206” value is given as “no inhibitory effect”. Further, in test [2], the “Zone of inhibition, MRSA-575” value is listed as 0 mm and the “inhibitory effect (in words) on multi-drug resistant Staphylococcus aureus 575” value is given as “no inhibitory effect”. In addition, in test [3], the “Zone of inhibition, MRSA-596” value is 0 mm and the “inhibitory effect (in words) on multi-drug resistant Staphylococcus aureus 596” value is “no inhibitory effect”.
